System: rat-transient focal cerebral ischemia model
Experiment: Rat-transient focal cerebral ischemia model (middle cerebral artery closure 2 h, TTC staining)
Assay type: in vivo
Settings: injectable solution, intravenously two times (immediately after and 30 minutes after restoration of blood flow), 3 mg/kg

Compound: CC1=NN(c2ccccc2)C(=O)C1 [3-methyl-1-phenyl-2-pyrazolin-5-one]
- effect on area of cerebral infarction compared with the control group (in words): almost same as that of the control group

Reference: patent publication US8076368B2, “Percutaneous absorption type cerebral protective agent” (Lead Chemical Co., Ltd,, priority 2003, dated 2011)
